Experimental data taken from PubChem BioAssay (NCI).
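Assay format: 96-well plates, 48-hour exposure. At the TGI there is no net growth.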

Experiments:
Experiment in all cases: inhibition of tumour cell growth, NCI panel, 48 h
HS 578T breast = tested on: HS 578T breast
HL-60(TB) leukemia = tested on: HL-60(TB) leukemia
K-562 leukemia = tested on: K-562 leukemia
DU-145 prostate = tested on: DU-145 prostate
SNB-19 CNS = tested on: SNB-19 CNS
NCI-H522 lung = tested on: NCI-H522 lung
SK-MEL-28 melanoma = tested on: SK-MEL-28 melanoma
SF-539 CNS = tested on: SF-539 CNS
MDA-N = tested on: MDA-N
HOP-62 NSCLC = tested on: HOP-62 NSCLC

Compound	TGI (HS 578T breast) [µM]	TGI (HL-60(TB) leukemia) [µM]	TGI (K-562 leukemia) [µM]	TGI (DU-145 prostate) [µM]	TGI (SNB-19 CNS) [µM]	TGI (NCI-H522 lung) [µM]	TGI (SK-MEL-28 melanoma) [µM]	TGI (SF-539 CNS) [µM]	TGI (MDA-N) [µM]	TGI (HOP-62 NSCLC) [µM]
CCCCCCCCCC(O)CC(=O)c1c(O)cccc1O (stereo not given)	40.8	57.3	49.5	> 100	73	37.9	> 100	40.7	51.6	33.1
C=CCOC(=O)c1c(C)n([O-])c2cc(Cl)c(Cl)cc2[n+]1=O	65.9	48.7	> 100	> 100	> 100	28.1	30.3	45.7	45.6	57.6
c1ccc2[nH]c3c(N=NC4=NCCN4)c4ccccc4c-3nc2c1	> 100	> 100	> 100	> 100	68.9	17.3	27.2	20.2	20.7	39.3
CC(=O)OC12CC(C(F)(F)F)(C(F)(F)F)OC1(OC(C)=O)CC(C(F)(F)F)(C(F)(F)F)O2 (stereo not given)	> 100	11.3	> 100	70.4	> 100	> 100	> 100	8.48	> 100	> 100
O=C1C(C(c2ccc([N+](=O)[O-])cc2)N2CCOCC2)=C(O)C(c2ccccc2)N1c1ccccc1 (stereo not given)	> 10	> 10	> 10	> 10	> 10	> 10	> 10	> 10	> 10	> 10
CCn1c(-c2ccc(OC)cc2)nc2c1C(=O)c1ccccc1C2=O	> 100	> 100	> 100	> 100	> 100	> 100	> 100	> 100	> 100	> 100
COc1ccc(C(=O)c2c(-c3ccccc3NC(=O)C(F)(F)F)[nH]c3ccccc23)cc1	46.9	13.6	32.7	17	21.6	22.8	27.6	4.41	29.3	22.1
Cc1ccc(S(=O)(=O)/N=C2/N(C)CCCS2(=O)=O)cc1	> 100	> 100	> 100	> 100	> 100	> 100	> 100	> 100	> 100	> 100
Nc1ncnc2c1ncn2C1OC(CO)C(O)C1NS(=O)(=O)c1ccccc1 (stereo not given)	> 100	> 100	> 100	> 100	> 100	> 100	> 100	> 100	> 100	> 100
O=C(CNc1nccs1)Nn1cnc2ccc(S(=O)(=O)Nc3nccs3)cc2c1=O	> 100	> 100	> 100	> 100	> 100	> 100	> 100	> 100	> 100	> 100
COC(=O)CCCC1(CCCC(=O)OC)CCCCCCCCC(CCCC(=O)OC)(CCCC(=O)OC)C(=O)C1=O	> 100	12.2	37.8	> 100	> 100	5.38	> 100	61.3	> 100	> 100
N#C/C=c1/c2ccccc2n2nc3ccccc3c12	> 100	> 100	> 100	> 100	40	38	> 100	37.6	> 100	44.4
COCCOC(C)C(=O)C(O)S(=O)(=O)O (stereo not given)	> 100	> 100	> 100	> 100	> 100	> 100	> 100	> 100	> 100	> 100
CC(=O)NNC(=S)/N=C\c1c(O)c2ccccc2oc1=O	> 100	> 100	> 100	> 100	> 100	> 100	> 100	> 100	> 100	> 100
Oc1cc(Cl)cc2cc(Cl)cnc12	> 100	0.902	10.6	> 100	> 100	24.3	> 100	> 100	> 100	89.9
COc1cc(S(=O)(=O)Nc2ccc(-c3csc(N4C(=O)C(Cl)C4c4cccc(Oc5ccccc5)c4)n3)cc2)ccc1Cl (stereo not given)	> 100	41.7	91.2	52.1	> 100	3.22	79.8	29.6	64.7	> 100
CC(C)NCC(O)c1ccc(O)c2ncccc12 (stereo not given)	> 100	> 100	> 100	> 100	> 100	> 100	> 100	> 100	> 100	> 100
N#C/C(=C/n1c(=S)[nH]c2ccccc21)C(N)=O	> 100	30.4	> 100	> 100	> 100	> 100	> 100	> 100	> 100	> 100
COc1ccc(OC)c(NC2=NCCO2)c1	> 100	> 100	> 100	> 100	22.7	> 100	> 100	> 100	> 100	> 100
CC(C)(C)c1cc(C(=O)C2Cc3ccccc3C(=O)O2)cc(C(C)(C)C)c1O (stereo not given)	> 100	35	> 100	28.3	24.7	27.8	36.8	31.7	23.9	30.8
Oc1cc(O)c2c(c1)O[C@H](c1cc(O)c(O)c(O)c1)[C@@H](O)C2	> 100	45.4	38.2	> 100	> 100	35.1	> 100	40.7	44.2	34
N/C(=N\NC(=O)c1nc2ccccc2s1)c1ccccn1	> 100	23.4	> 77.8	> 40.2	> 100	44.6	> 100	15.6	> 100	> 57.6
Cc1ccc(/C(O)=C/c2nc3cccnc3[nH]c2=O)cc1	> 100	> 100	> 100	> 100	> 100	> 100	> 100	> 100	> 100	85.9
c1ccc(C(c2cccc3c2ccc2ccccc23)C(c2ccccc2)c2cccc3c2ccc2ccccc23)cc1 (stereo not given)	> 100	> 100	> 100	> 100	> 100	> 100	> 100	> 100	> 100	> 100
CCCCC(=C=C(C)CO)C1CCCN1C(=O)OC(C)(C)C (stereo not given)	30.4	32.5	38.4	34.1	60.2	29	36	34.5	34.2	39.1
